The record followed here is patent publication US7026344B2, “Treating sickle cell disease” (priority 2000, dated 2006).

Values joined by “and” are separate entries in the source; they are usually repeats but may differ in a detail not shown here. Identical values can stand only once.

Data set [1] has as its system activated-PMN mediated SRBC retention/adherence in the isolated-perfused rat lung. Put plainly: SRBC retention/adherence in isolated-perfused lung with PMA-activated PMNs. Particulars: for SRBC retention/adherence: mean±SE. On the procedure:
Isolated perfused lung. Male Sprague-Dawley rats (275–350 g) were anesthetized with Nembutal sodium (25 mg ip), and lungs were removed for extracorporeal perfusion. A tracheostomy was performed that permitted ventilation with a Harvard rodent ventilator (model 683) at 55 breaths/min with a tidal volume of 2.5 ml and 2.0 cmH2O positive end-expiratory pressure. The inspired gas mixture as 95% air-5% CO2 (room air gas). A median stemotomy was performed, heparin sodium (100 IU) was injected in the right ventricle, and caminulas were placed in the pulmonary artery and left ventricle. Heart, lungs, and mediastinal structures were removed en bloc and placed into a humidified chamber. Lungs were perfused by a Gilson Minipuls 2 peristaltic pump at a constant flow of 0.03 ml·g body wt^−1·min^−1. Lungs were perfused with a physiological salt solution (PSS) containing bovine serum albumin (BSA, 66,000 mol.wt). The PSS-BSA perfusate contained (in mM) 119 NaCl, 4.7 KCI, 1.17 MgSO4, 22.5 NaHCO3, 1.18 KH2PO4, 3.2 CaCl2, 5.5 glucose, and 4 g/100 ml BSA. PSS-BSA (100 ml) was perfused through the lungs in a nonrecirculating fashion to remove residual blood cells and plasma. The perfusate was then changed to a PSS-BSA perfusate that contained RBCs from individuals homozygous for sickle cell anemia (Hb SS). The perfusate hematocrit was ˜10%. Pulmonary arterial pressure (Ppa) and pulmonary venous (Ppv) were continuously monitored with Cope pressure transducers (model 041-500-503) and recorded on a Grass polygraph recorder (model 7E). Zone 3 flow conditions (arterial>venous>alveolar pressures) were maintained throughout all experiments.
Blood collection. During steady-state, blood samples (˜40 ml) were obtained from normal (Hemoglobin A) human volunteers and from individuals with homozygous sickle cell anemia in the sickle cell clinics at the University of South Alabama. Samples were collected in syringes containing heparin and utilized within 48 hours of collection. Individuals having received blood transfusions within 6 wks were excluded from this study. Sickle cell anemia was documented by hemoglobin electrophoresis in each subject.
RBC isolation and Cr^51 labeling. Each whole blood sample was centrifuged at 4100 rpm for 10 min followed by the removal of the plasma and buffy coat. Packed RBCs were then mixed at a 1:3 dilution with normal saline and washed ×3. With each wash, the RBC suspension was centrifuged for 10 min at 3000 rpm followed by removal of the supernatant. Following the third wash, packed RBCs were resuspended in PBS (1 ml PBS/1 ml packed RBCs) and incubated with 100 μCi Cr^51 for 60 min in a shaker water bath at 37° C. Following incubation, the Cr^51 labeled RBCs were washed ×1 with normal saline and resuspended in PSS-BSA to obtain a hematocrit of ˜10%.
Neutrophil (PMN) isolations. Heparinized whole blood (20 ml) from individuals with homozygous sickle cell anemia was diluted 1:1 with normal saline. Dextran 500 was added to the 1:1 mix at ¼ the volume of the 1:1 mix. This was allowed to incubate for 45 min at 37° C. The supernatant (contains PMNs) was aspirated into a 50 ml centrifuge tube and underlayered with 10 ml histopague 1077. This was centrifuged at 1250 rpm for 30 min. The supernatant is aspirated and discarded leaving the PMN pellet. Sterile H2O, 3 ml, is added to the PMN pellet and agitated for 3 sec to lyse any residual RBCs. Phosphate buffered saline, 45 ml, is added immediately thereafter to stop the reaction. This is centrifuged at 1250 rpm for 10 min. The supernatant is aspirated and discarded. This process of RBC lysis followed by PBS is repeated until the PMN pellet is without visual evidence of RBC contamination. The PMN pellet is suspended in 1 ml of sterile Hank's balanced salt solution. A total PMN count is obtained using the Cell-DYN 900 Coulter Counter. PMN viability is 95–99% as assessed using trypan blue.
RBC Retention. […]

Data set [2] relates to fetal hemoglobin production in primary erythroid progenitors from Hb SS patients. Put plainly: Hemoglobin F determination in erythroid progenitors, Hb SS patients. In kind it is cell-based, human. The following applies: for fold increase in hemoglobin F: 0 versus 100 μM, Hb SS patients; for HbF Difference: 0 vs 100 μM, sickle cell patients. On the procedure:
BFU-E Colony Growth. Mononuclear cells were isolated from the peripheral blood of each patient studied by density gradient centrifugation using Histapaque-1077 (Sigma). Erythroid progenitors were obtained in methylcellulose culture. ZL was added on day 0 at 25, 50, 75, or 100 μM concentrations for 13–14 days at which time the number of BFU-E colonies were counted on an inverted microscope and harvested for hemoglobin determinations.
Hemoglobin F determination. The erythroid progenitors were collected, washed in PBS then lysed at room temperature in 200 μl of water. The supernatant was split into two tubes, one for total hemoglobin determination and one for hemoglobin F determination. In brief, IgG (10 μl), 1.2 N NaOH (7 μl) and saturated (NH4)2SO4 (70 μl) were added to the hemoglobin F sample. The denatured hemoglobin was pelleted and the supernatant containing hemoglobin F was mixed with 500 μl of tetramethyl benzidine and 500 μl of H2O2 at room temperature then quantitated on a spectrophotometer at 600 nm. The percentage of fetal hemoglobin to total hemoglobin was determined.
The capability of ZL to induce hemoglobin F in primary erythroid progenitors, grown from peripheral blood mononuclear cells (MNC) was analyzed. BFU-E colonies were grown in methylcellulose cultures supplemented with erthyopoietin and interleukin-3 and ZL at concentration from 0 to 100 μM. Three patients homozygous for hemoglobin S (Hb SS) were analyzed with triplicate experiments. The average BFU-E colony number was 123.2±18.6 without ZL compared to 10.6±2.0 at 100 μM concentrations, p<0.05 (Table 1). […] All pair-wise comparisons for BFU-E and hemoglobin F between 0μ and other concentrations (25, 50, 75 and 100 μM) were significant at p<0.05. The correlation coefficient between the number of BFU-E colonies or percent hemoglobin F and different levels of ZL is −0.90 and +0.79, respectively (p<0.05). […] (See Yang et al., BFU-E colony growth in response to hydroxyurea: correlation between in vitro and in vivo fetal hemoglobin induction. Am J Hematol. 1997; 56:252–258). […] HU either was more efficient in inhibiting BFU-E colony growth or alternatively the baseline number of colonies on an average was higher for the Hb SS patients in the HU cohort.

Data set [3] relates to K562 cells. Put plainly: K562 cell viability by trypan blue exclusion. The following applies: 75 μM and 100 μM. In kind it is cell-based, human. On the procedure:
Cell Culture. K562 cells were grown in suspension cultures in RPMI-1640 containing 10% fetal bovine serum, penicillin (100 U/ml) and streptomycin (0.1 mg/ml in a humidified incubator at 37° C. in a 5%CO2/95% air atmosphere. […] The K562 cells were induced for 72 hours then RNA isolated for further analysis. Cell viability was completed by 2% trypan blue exclusion at timnes 0 and 72 hours.

For the compound `CC(c1cc2ccccc2s1)N(O)C(N)=O` (racemic) [ZL, (±)-1-(1-Benzo[b]thien-2-ylethyl)-1-hydroxyurea], the “decrease in SRBC retention/adherence” value in data set [1] (ZL 2.5 μM pretreated A-PMN vs SRBC+A-PMN control (ethanol diluent), 30 min perfusion) is recorded as ~42%. The “fold increase in hemoglobin F” value in data set [2] amounted to 4.8 fold. The “HbF Difference” value in data set [2] amounted to 12.6 ± 1.1%. Also, the HbF was 3% and 4% and 11% in data set [2] (zileuton 25 μM, individual Hb SS patients (No. 1-3)); 6.2 ± 1.4% in data set [2] (zileuton 25 μM, mean ± SEM of three Hb SS patients); 6% and 7% and 14% in data set [2] (zileuton 50 μM, individual Hb SS patients (No. 1-3)); 11.9 ± 1.3% in data set [2] (zileuton 50 μM, mean ± SEM of three Hb SS patients); 11% (2×) and 18% in data set [2] (zileuton 75 μM, individual Hb SS patients (No. 1-3)); 13.2 ± 1.4% in data set [2] (zileuton 75 μM, mean ± SEM of three Hb SS patients). Moreover, the HbF in data set [2] (zileuton 100 μM, individual Hb SS patients (No. 1-3)) was 13% and 14% and 21%; in data set [2] (zileuton 100 μM, mean of three Hb SS patients), 15.9±1.4% and 15.9%; in data set [2] (zileuton 100 μM, mean of three Hb SS patients, listed as zileuton), 15.9 ± 1.4%. Also, the “decrease in K562 cell viability” value in data set [3] is listed as 10%.

Turning to `NC(=O)NO` [HU, Hydroxyurea], the figures for the SRBC retention/adherence in data set [1] (HU 50 μM pretreated A-PMN), in data set [1] (HU 100 μM pretreated A-PMN) and in data set [1] (HU 1000 μM pretreated A-PMN) were 4.2±0.4 ×10^8 SRBC/gram of lung, 4.3±0.4 ×10^8 SRBC/gram of lung and 3.9±0.2 ×10^8 SRBC/gram of lung, respectively. In data set [1] (HU 1000 μM pretreated PMNs vs control (H2O diluent)), the “decrease in retained SRBCs” value is given as ~25%. The “attenuation of activated-PMN mediated enhanced SRBC retention/adherence” value in data set [1] (HU 50 and 100 μM) is “did not attenuate”. In addition, in data set [2], the “fold increase in hemoglobin F” value turned out to be 3.8 fold. In addition, in data set [2], the “HbF Difference” value was found to be 14.4 ± 1.5%. Besides, in data set [3], the “decrease in K562 cell viability” value came out at 10%.
